Results from patent US20120128657A1, “SYNTHETIC MACROCYCLIC COMPOUNDS AND METHODS FOR TREATING CANCER” (priority 2007, published 2012).

Legend:
4T1 breast tumor cells [1] = assay: Chamber cell migration assay (Boyden chambers); format: cell-based; details: Mus musculus, 10% FBS in lower chamber, 4 h
Description: Chamber Cell Migration Assay: Cell migration was assayed in Boyden chambers [8.0 μm pore size polyethylene terephthalate membrane, FALCON cell culture insert (Becton-Dickinson)]. Cells were trypsinized and counted. 5-10×10^4 cells in serum free medium (300 μl) were added to the upper chamber and 500 μl of appropriate medium with 10% FBS were added to the lower chamber. Transwells were incubated for 4 h at 37° C. Cells on the inside of the transwell inserts were removed with a cotton swab, and cells on the underside of the insert were fixed and stained. Photographs of three random fields were taken and the number of cells counted to calculate the average number of cells that had transmigrated. Results in the form of IC50 values obtained from the chamber migration assay using 4T1 breast tumor cells for compounds 1-6 are presented in Table 1.

[2] = tested on: Bacillus subtilis (ATCC 49343); assay: Modified disc diffusion antimicrobial assay; format: cell-based; details: ATCC49343, B. subtilis, 50 μg/disk, 6 mm disks, 37° C., 18 hours
Description: Antimicrobial Assays Compounds were tested for antimicrobial activity against Escherichia coli (ATCC 8739) and Bacillus subtilis (ATCC 49343) and for antifungal activity against Candida albicans (ATCC 90027) using a modified disc diffusion assay. Briefly, agar plates seeded with suspensions of bacteria or fungi were prepared by adding 500 μL of a 24 h culture of bacteria to 100 mL of autoclaved Antibiotic Medium 2 (AB2) containing 1% agar and cooled to 55° C., or of fungi to Sabouraud Dextrose Agar (SDA) at 55° C. Seeded liquid agar (10 mL) was transferred immediately to square Petri dishes and allowed to cool for 1 h. Controls used for C. albicans, E. coli and B. subtilis included amphotericin B (25 μg), ampicillin (50 μg) and choloramphenicol (12.5 μg), respectively. Sterile disks (6 mm) containing control antibiotics or one of the macrocycles ([…]) were placed onto the agar and plates were incubated at 37° C. for 18 hours Inhibitory activity was measured by the zones of inhibition.

4T1 breast tumor cells [3] = assay: Cell proliferation assay; format: cell-based, mouse; details: DMEM with 10% FBS, cells counted daily (FIG. 1)
Description: Cell Proliferation Assay: 4T1 breast tumor cells were trypsinized, resuspended in Dulbecco's Modified Eagle Medium (DMEM) with 10% FBS and counted. 5×10^4 cells were plated per well in a 6-well dish and grown in DMEM with 10% FBS. Each day of the assay, one well of each type of cell was trypsinized and the cells were counted.

4T1 breast tumor cells [4] = assay: In vitro wound-healing assay; format: cell-based, mouse; details: 4T1 cells, medium with 10% FBS, overnight incubation at 37° C.
Description: In vitro Wound-Healing Assay: 4T1 breast tumor cells in medium containing 10% fetal bovine serum (FBS) were seeded into wells of 24-multiwell plates (Becton-Dickinson). After they grew to confluence, wounds were made with sterile pipette tips. Cells were washed with Phosphate Buffered Saline (PBS) and refreshed with medium with or without 10% FBS. After overnight incubation at 37° C., cells were fixed and photographed according to protocols described by Yang, S, and Huang, X.-Y. J. Biol. Chem. 2005, 280, 27130-27137; and Shan, D.; Chen, L.; Njardarson, J. T.; Gaul, C.; Ma, X.; Danishefsky, S. J.; and Huang, X.-Y. Proc. Natl. Acad. Sci. U.S.A. 2005, 102, 3772-3776, both the Yang and Shan references are incorporated herein by reference.

IC50 (4T1 breast tumor cells [1]; unit given in μM) [nM]	Compound	zone of inhibition at 50 µg/disc [2] [mm]	also measured
–	CC(C)=CC(=O)O[C@@H]1C[C@]2(O)C[C@@H](OC(=O)CCCC/C=C\CNC2=O)[C@@H]1O [Compound 6]	–	IC50 (4T1 breast tumor cells [1]; unit column prints nM): 550 ± 189 nM
525000 ± 163000	O=C1CCCC/C=C\CNC(=O)[C@]2(O)C[C@@H](O)[C@@H](O)[C@@H](C2)O1 [Compound 3]	8.5	–
> 250000	O=C1CC/C=C/CNC(=O)[C@]2(O)C[C@@H](O)[C@@H](O)[C@@H](C2)O1 [Compound 2]	–	–
> 500000	CC(C)(C)OC(=O)NC(Cc1ccccc1)C(=O)O[C@@H]1C[C@]2(O)C[C@@H](OC(=O)CCCC/C=C\CNC2=O)[C@@H]1O (stereo partly drawn) [Compound 5]	–	–
12000 ± 2900	O=C1CCCC/C=C/CNC(=O)[C@]2(O)C[C@@H](O)[C@@H](O)[C@@H](C2)O1 [Compound 4]	7.5	–
–	O=C1CC/C=C\CNC(=O)[C@]2(O)C[C@@H](O)[C@@H](O)[C@@H](C2)O1 [Compound 1]	9	IC50 (4T1 breast tumor cells [1]; unit column prints nM): 77 ± 17 nM; 4T1 cell proliferation (4T1 breast tumor cells [3]): does not affect 4T1 cell proliferation; closure of the wound (cell migration) (4T1 breast tumor cells [4]): prevented closure of the wound
–	CC1(C)S[C@@H]2[C@H](NC(=O)[C@H](N)c3ccccc3)C(=O)N2[C@H]1C(=O)O [ampicillin, reference compound]	15	–
